Entries after “also recorded” stand apart in the source; their conditions may differ.
Key:
[1] = system: patients with moderate to severe precapillary pulmonary hypertension; assay: Acute vasodilator challenge during right heart catheter investigation: inhaled treprostinil applied by soft mist inhaler (Example 1); conditions: for CO (max) / HR (max) / SvO2 (max): highest value; for CO (max) / HR (max) / SvO2 (max) / PAP (min) / PVR (min) / SAP (min) / SVR (min) / SaO2 (min): mean ± SEM; for PAP (min): lowest value during 120 min observation; for PVR (min) / SAP (min) / SVR (min) / SaO2 (min): lowest value; for pulmonary vascular resistance (PVR) reduced to: Respimat SMI, mean±95% confidence interval
Procedure: A study was conducted of acute vasodilator challenge during right heart catheter investigation to determine the safety, tolerability and pulmonary vasodilatory potency of inhaled treprostinil applied in seconds by a soft mist inhaler (SMI-TRE).
Inhaled nitric oxide (20 ppm; n=45) and inhaled treprostinil sodium (TRE; n=41) or placebo (n=4) were applied once during right heart catheter investigation. TRE was delivered in 2 breaths (1000 μg/ml aerosol concentration; 30 μg dose; n=12), 3 breaths (1000 μg/ml; 45 μg; n=9) or 2 breaths (2000m/m1; 60 μg; n=20) from a Respimat® SMI. Pulmonary hemodynamics and blood gases were measured at defined time points, observation time following TRE application was 120 minutes.
• A total number of 45 patients with moderate to severe precapillary pulmonary hypertension were enrolled. […] Disease etiologies were idiopathic PAH (iPAH) (n=13), PAH other (n=11), chronic thromboembolic pulmonary hypertension (CTEPH) (n=17) and pulmonary fibrosis (n=4).
Baseline values were determined 20-30 minutes after placement of the catheter. Heart rate, pulmonary and systemic blood pressure and cardiac output were measured and blood gases were taken during each pharmacological intervention at defined time points. Pharmacological interventions included the inhalation of 20 ppm nitric oxide (NO) after evaluation of baseline parameters (n=45) and the consecutive inhalation of placebo (n=4), 30 μg SMI-TRE (n=12), 45 μg SMI-TRE (n=9) or 60 μg (n=20) SMI-TRE. Placebo and treprostinil was applied with the Respimat® SMI. For filling of this device with treprostinil sodium, the placebo solution was withdrawn from the device with a syringe and treprostinil solution was injected into the device under sterile conditions. Aerosol quality was controlled before and after refilling of the SMI devices by laser diffractometry, see e.g. Gessler T., Schmehl T., Hoeper M.M., Rose F., Ghofrani H.A., Olschewski H. et al. Ultrasonic versus jet nebulization of iloprost in severe pulmonary hypertension. Eur. Respir. J. 2001; 17:14-19 incorporated herein in its entirety. […] The aerosol volume delivered by one cycle from the SMI was 15 μl. The solution used for aerosol generation was prepared from treprostinil sodium salt using a standard protocol. The SMI was either filled with a concentration of 1000 μg/ml treprostinil sodium (one aerosol puff=15 μg TRE) or with 2000 μg/ml (one puff=30 μg TRE). The different doses were applied as 2 puffs 1000 μg/ml (30 μg), 3 puffs 1000m/m1 (45 μg) and 2 puffs 2000 μg/ml (60 μg). The placebo was inhaled as 2 puffs from a placebo-SMI. Hemodynamics and gas-exchange parameters were recorded for 120 minutes after TRE inhalation.

[2] = system: patients with moderate to severe precapillary pulmonary hypertension; assay: Study i) randomized crossover study of inhaled treprostinil vs inhaled iloprost, right heart catheter; format: in vivo, human; conditions: for area under the curve (AUC) of PVR decrease: mean±95% confidence interval
Procedure: All inhalations were performed with the […]® ultrasonic nebulizer ([…], Germany). Study i) was a randomized, open-label, single-blind crossover study. […] Patient characteristics and hemodynamic as well as gas exchange parameters are outlined in Table 3. Each patient inhaled both iloprost and treprostinil on the same day during right heart catheter investigation; the drugs were administered consecutively with a one hour interval between the drug applications. One half of the study patients initially inhaled treprostinil and then inhaled iloprost (n=22), while the other half initially inhaled iloprost and then inhaled treprostinil (n=22). Patients were randomized to one of the two groups and blinded as to the study drugs. Drug effects were monitored for 60 minutes after each inhalation.

[3] = Treprostinil plasma concentrations after single inhalation (study ii), LC-MS/MS; conditions: for Cmax: human, plasma, inhaled
Procedure: Treprostinil plasma concentrations were assessed in study ii) at 10, 15, 30, 60 and 120 minutes after inhalation. Treprostinil quantification was done by Alta Analytical Laboratory (El Dorado Hills, Calif., USA) with a validated liquid chromatography atmospheric-pressure ionization tandem mass spectrometry as previously described Wade M., et al. J. Clin. Pharmacol. 2004; 44:503-9. Mixed venous blood was drawn at the depicted time points (FIG. 11) after inhalation, centrifuged and the plasma frozen at −80° C. until temperature controlled shipping on dry ice.

[4] = Aerosol quality by laser diffractometry (Respimat SMI); format: physicochemical; conditions: treprostinil-aerosol from Respimat SMI
Source text: Placebo and treprostinil was applied with the Respimat® SMI. […] Eur. Respir.

[5] = system: patients with severe pulmonary hypertension; assay: Study ii) placebo controlled dose escalation study of inhaled treprostinil, hemodynamics and tolerability; conditions: for maximal decrease of PVR to: 6 min inhalation
Procedure: Study ii) was a randomized, open-label, single blind, placebo controlled study. […] A total number of 31 patients inhaled either placebo or treprostinil; each patient received one inhalation. […] Inhalation time was 6 minutes in all groups.

[6] = metacresol-containing TRE solution

CCCCC[C@H](O)CC[C@@H]1[C@H]2Cc3cccc(OCC(=O)[O-])c3C[C@H]2C[C@H]1O.[Na+] [TRE]
120 minute area under the curve for PVR ([1]; 30 μg TRE): −870±940 min % | duration of effect on pulmonary vascular resistance ([1]; 30 μg TRE, compared with 45 and 60 μg): somewhat shorter effect | CO (max) ([1]; 30 μg TRE, n=12): 108.8 ± 3.8% of baseline values | HR (max) ([1]; 30 μg TRE, n=12): 106.1 ± 2.9% of baseline values | SvO2 (max) ([1]; 30 μg TRE, n=12): 102.4 ± 1.3% of baseline values | PAP (min) ([1]; 30 μg TRE, n=12): 83.4 ± 3.2% of baseline values | PVR (min) ([1]; 30 μg TRE, n=12): 84.4 ± 4.4% of baseline values | SAP (min) ([1]; 30 μg TRE, n=12): 97.3 ± 1.9% of baseline values | SVR (min) ([1]; 30 μg TRE, n=12): 97.7 ± 4.2% of baseline values | SaO2 (min) ([1]; 30 μg TRE, n=12): 101 ± 0.3% of baseline values | pulmonary vascular resistance (PVR) reduced to ([1]; 30 μg, 2 breaths 1000 μg/ml): 84.4±8.7 % of baseline values | 120 minute area under the curve for PVR ([1]; 45 μg TRE): −2450±2070 min % | CO (max) ([1]; 45 μg TRE, n=9): 108.6 ± 5.6% of baseline values | HR (max) ([1]; 45 μg TRE, n=9): 99.1 ± 2.4% of baseline values | SvO2 (max) ([1]; 45 μg TRE, n=9): 104.5 ± 4.4% of baseline values | PAP (min) ([1]; 45 μg TRE, n=9): 77.6 ± 6.8% of baseline values | PVR (min) ([1]; 45 μg TRE, n=9): 71.4 ± 8.9% of baseline values | SAP (min) ([1]; 45 μg TRE, n=9): 96.1 ± 1.5% of baseline values | SVR (min) ([1]; 45 μg TRE, n=9): 92 ± 3.9% of baseline values | SaO2 (min) ([1]; 45 μg TRE, n=9): 94.4 ± 1.8% of baseline values | pulmonary vascular resistance (PVR) reduced to ([1]; 45 μg, 3 breaths 1000 μg/ml): 71.4±17.5 % of baseline values | 120 minute area under the curve for PVR ([1]; 60 μg TRE): −2000±900 min % | CO (max) ([1]; 60 μg TRE, n=20): 103.8 ± 2.0% of baseline values | HR (max) ([1]; 60 μg TRE, n=20): 101.1 ± 0.9% of baseline values | SvO2 (max) ([1]; 60 μg TRE, n=20): 102 ± 1.0% of baseline values | PAP (min) ([1]; 60 μg TRE, n=20): 79.5 ± 2.4% of baseline values | PVR (min) ([1]; 60 μg TRE, n=20): 77.5 ± 3.7% of baseline values | SAP (min) ([1]; 60 μg TRE, n=20): 93.6 ± 2.9% of baseline values | SVR (min) ([1]; 60 μg TRE, n=20): 91.3 ± 2.1% of baseline values | SaO2 (min) ([1]; 60 μg TRE, n=20): 95.8 ± 0.9% of baseline values | pulmonary vascular resistance (PVR) reduced to ([1]; 60 μg, 2 breaths): 77.5±7.2 % of baseline values | effect on systemic vascular resistance and pressure ([1]; 30-60 μg from Respimat SMI): very small and not clinically significant | systemic side effects ([1]; 30-60 μg from Respimat SMI): No systemic side effects | tolerability / side effects ([1]; 30-60 μg from Respimat SMI, listed as SMI-TRE): No significant side effects; also recorded: well tolerated; also recorded: only mild and transient cough for a maximum of one minute | duration of PVR reduction / pulmonary vasodilation ([1]; 45 and 60 μg, single inhalation of 2-3 breaths, outlasted observation time): > 120 min | cardiac output ([1]; 120 min observation period): significantly increased | gas exchange ([1]; 120 min observation period): not influenced | heart rate ([1]; 120 min observation period): rather unchanged | area under the curve (AUC) of PVR decrease ([2]; 7.5 μg inhaled in 6 minutes, start of inhalation until 60 min): −12.6±7.0% | area under the curve (AUC) of PVR decrease ([2]; 15 μg inhaled in 6 minutes, until 60 min): −13.3±3.2% | area under the curve (AUC) of PVR decrease ([2]; 15 TRE inhaled in 3 minutes, until 60 min): −13.6±4.3% | PVR values after 60 min ([2]; 60 min after inhalation): had not yet returned to baseline | gas exchange ([2]; after inhalation): did not affect gas exchange | systemic arterial pressure (SAP) ([2]; after inhalation): unaffected | side effects (transient flush, headache) ([2]; iloprost 7.5 μg, treprostinil 7.5-15 μg): not observed | maximum effect on PVR ([2]; iloprost vs treprostinil, pooled): comparable | taste [2, 6]: Bad taste was reported by most of the patients | time to maximum effect on PVR after inhalation ([2]; pooled n=44, mean±SEM, p<0.0001): 18 ± 2 min | time of peak plasma concentrations after inhalation ([3]; 30-120 μg, 6 min inhalation): 10 to 15 min | Cmax ([3]; 30 ug): 0.65 ± 0.28 ng/mL | Cmax ([3]; 60 ug): 1.59 ± 0.17 ng/mL | Cmax ([3]; 90 ug): 1.74 ng/mL | Cmax ([3]; 120 ug): 3.51 ± 1.04 ng/mL | aerosol particles mass median aerodynamic diameter [4]: 4 to 5 µm | cardiac output increased to a maximum of ([5]; 30 μg): 106.8±3.2% | side effects ([5]; 30 μg TRE, n=1 each): flushing; also recorded: mild transient bronchoconstriction | duration of hemodynamic changes ([5]; 30 μg dose group, 3 hour observation period): had just returned to baseline within this period | maximal decrease of PVR to ([5]; 30 μg, n=8): 76.5±4.7 % of baseline values | cardiac output increased to a maximum of ([5]; 60 μg): 122.9±4.3% | side effects ([5]; 60 μg TRE, n=3): mild transient cough | duration of pulmonary vasodilation ([5]; 60 μg and 90 μg (and 120 μg) TRE doses, surpassing observation period): > 3 h | maximal decrease of PVR to ([5]; 60 μg, n=6): 73.7±5.8 % of baseline values | cardiac output increased to a maximum of ([5]; 90 μg): 114.3±4.8% | maximal decrease of PVR to ([5]; 90 μg, n=6): 73.3±4.3 % of baseline values | cardiac output increased to a maximum of ([5]; 120 μg TRE): 111.3±3.9% | arterial oxygen saturation ([5]; 120 μg TRE, all 3 patients): significantly decreased | side effects ([5]; 120 μg TRE, n=1 each): moderate bronchoconstriction; also recorded: severe headache | maximal decrease of PVR to ([5]; 120 μg, n=3): 65.4±4.1 % of baseline values | gas exchange ([5]; doses up to 90 μg TRE): not affected | effects on systemic arterial pressure ([5]; even at the highest doses): only minor effects | taste of the aerosol [5, 6]: bad taste of the TRE aerosol was reported by most patients | tolerated inhaled dose ([5]; single inhalation): up to 90 μg

Source: patent publication US11357782B2, “Treprostinil administration by inhalation” (priority 2006, dated 2022)
